Test results reported in US5216005A, “Immunosuppressive analogues and derivatives of succinylacetone” (priority 1990, dated 1993).

Assays:
[1] = system: human lymphocytes; assay: tritiated thymidine uptake in primary mixed lymphocyte reaction; assay type: cell-based; settings: for CPM ± SD: 1° MLR
Description: The in vitro mixed lymphocyte assay described below is presently employed in the clinical setting as an indicator of histocompatibility, and is premised on the transformation of resting genetically dissimilar lymphocytes into cells which synthesize DNA and undergo proliferation.
The mixed lymphocyte reaction assay can be carried out by techniques well known to those skilled in the art. L. Hudson and F. C. Huy, Practical Immunology, p. 260, Blackwell Scientific Publications (1976). Briefly this consists of isolating lymphocytes from human peripheral blood by standard density gradient centrifugation techniques from two separate individuals. Approximately 2×10^5 lymphocytes of each individual are combined to yield a total of 4×10^5 lymphocytes per culture. All procedures are carried out under sterile conditions, and the lymphocytes are isolated and kept in physiologically compatible solutions. To the mixture of lymphocytes is added a desired amount of an appropriate succinylacetone derivative, and after different times an aliquot of the mixture is removed and assayed for IL-2 or IFN-γ, or ^3 H-T is measured.
As mentioned above, one measure of an immune response as reflected in a mixed lymphocyte assay is the stimulation of DNA synthesis, and a concomitant increase in cell number. Thus, to further ascertain the immunosuppressive activity of succinylacetonyl-proline-NH-PEG, its effect on inhibition of thymocyte growth, as detected by uptake of tritiated thymidine, was assayed.

[2] = system: human lymphoid cells; assay: tritiated thymidine uptake in secondary mixed lymphocyte reaction; assay type: cell-based; settings: 2°-MLR; for inhibition at 740 µM / inhibition at 2200 µM / inhibition at 6700 µM / inhibition at 20000 µM: Homo sapiens, Lymphocyte
Procedure: In addition to testing the immunosuppressive activities of succinylacetone derivatives in a primary mixed lymphocyte reaction, or a phytohemagglutinin stimulation assay, two of the derivatives, succinylacetone methyl ester and methyl 4-acetyl-5-oxohexanoate, were tested in a secondary mixed lymphocyte reaction assay. The secondary mixed lymphocyte assays differs from the primary mixed lymphocyte reaction assays in that they employ many more primed responder cells that are responsive to the primary stimulating cells. The presence of such responsive cells is a reflection of immunological memory in an ongoing immunological response. […] These cells are then used in the secondary mixed lymphocyte reaction. It is worth noting that because a secondary mixed lymphocyte reaction is greatly enriched for responsive cells, fewer cells can be used in the secondary assay.
It will be appreciated that described therein is a method for carrying out secondary lymphocyte reactions using mouse cells, however such methods are generally applicable to performing secondary mixed lymphocyte reactions using human cells with modifications that are well known to those skilled in the art. […] The assays were conducted in duplicate involving lymphoid cells isolated from two individuals.

[3] = viability of peripheral blood lymphocytes with or without PHA, trypan blue exclusion; assay type: cell-based, human; settings: human, peripheral blood lymphocytes; for viability at 2200 µM: 2.2 mM; for viability at 6700 µM: 6.7 mM; for viability at 20000 µM: 20 mM
Procedure: (§1) Viability was determined using the trypan blue exclusion method well known in the art. […] The assays were conducted in duplicate wherein peripheral blood lymphocytes were isolated from two separate individuals, and then treated with or without phytohemagglutinin in the presence of various concentrations of the appropriate succinylacetone derivative.

[4] = system: peripheral blood lymphocytes; assay: as above; assay type: cell-based, human
Procedure: as §1

COC(=O)CCC(=O)CC(C)=O [Succinylacetone Methyl Ester, methyl 4-6-dioxoheptanoate]
CPM ± SD ([1]; Exp I, 3 μM): 81740 CPM
CPM ± SD ([1]; Exp I, 9 μM): 87101 CPM
CPM ± SD ([1]; Exp I, 27 μM): 75211 CPM
CPM ± SD ([1]; Exp I, 81 μM): 80182 CPM
CPM ± SD ([1]; Exp I, 244 μM): 66159 CPM
CPM ± SD ([1]; Exp I, 733 μM): 30535 CPM
CPM ± SD ([1]; Exp I, 2.2 mM): 3185 CPM
CPM ± SD ([1]; Exp I, 6.7 mM): 89 CPM
CPM ± SD ([1]; Exp I, 20 mM): 164 CPM
CPM ± SD ([1]; Exp II, 3 μM): 114428 CPM
CPM ± SD ([1]; Exp II, 9 μM): 110425 CPM
CPM ± SD ([1]; Exp II, 27 μM): 97879 CPM
CPM ± SD ([1]; Exp II, 81 μM): 87595 CPM
CPM ± SD ([1]; Exp II, 244 μM): 78306 CPM
CPM ± SD ([1]; Exp II, 733 μM): 40700 CPM
CPM ± SD ([1]; Exp II, 2.2 mM): 33497 CPM
CPM ± SD ([1]; Exp II, 6.7 mM): 126 CPM
CPM ± SD ([1]; Exp II, 20 mM): 90 CPM
IC50 ([1]; Homo sapiens, Lymphocyte, read-out: concentration for 50% reduction in thymidine uptake): ~733 µM
CPM ([2]; Exp I, 247 μM): 87337 CPM
CPM ([2]; Exp I, 740 μM): 67456 CPM
CPM ([2]; Exp I, 2.2 mM): 11778 CPM
CPM ([2]; Exp I, 6.7 mM): 51 CPM
CPM ([2]; Exp I, 20 mM): 64 CPM
CPM ([2]; Exp II, 247 μM): 125345 CPM
CPM ([2]; Exp II, 740 μM): 85447 CPM
CPM ([2]; Exp II, 2.2 mM): 29851 CPM
CPM ([2]; Exp II, 6.7 mM): 62 CPM
CPM ([2]; Exp II, 20 mM): 87 CPM
inhibition at 740 µM ([2]; Exp I, 740 μM): 16.3%
inhibition at 2200 µM ([2]; Exp I, 2.2 mM): 85.4%
inhibition at 6700 µM ([2]; Exp I, 6.7 mM): 9.99%
inhibition at 20000 µM ([2]; Exp I, 20 mM): 99.9%
inhibition at 740 µM ([2]; Exp II, 740 μM): 8.5%
inhibition at 2200 µM ([2]; Exp II, 2.2 mM): 68%
inhibition at 6700 µM ([2]; Exp II, 6.7 mM): 9.99%
inhibition at 20000 µM ([2]; Exp II, 20 mM): 99.9%
viability ([3]; between 2.2 mM and 733 μM): ~100%
viability at 3 µM ([3]; first individual, (+) PHA): 100%
viability at 9 µM ([3]; first individual, (+) PHA): 100%
viability at 27 µM ([3]; first individual, (+) PHA): 97%
viability at 81 µM ([3]; first individual, (+) PHA): 96%
viability at 244 µM ([3]; first individual, (+) PHA): 97%
viability at 733 µM ([3]; first individual, (+) PHA): 90%
viability at 2200 µM ([3]; first individual, (+) PHA): 89%
viability at 6700 µM ([3]; first individual, (+) PHA): 8%
viability at 20000 µM ([3]; first individual, (+) PHA): 0%
viability at 3 µM ([3]; first individual, (-) PHA): 100%
viability at 9 µM ([3]; first individual, (-) PHA): 100%
viability at 27 µM ([3]; first individual, (-) PHA): 100%
viability at 81 µM ([3]; first individual, (-) PHA): 100%
viability at 244 µM ([3]; first individual, (-) PHA): 100%
viability at 733 µM ([3]; first individual, (-) PHA): 96%
viability at 2200 µM ([3]; first individual, (-) PHA): 94%
viability at 6700 µM ([3]; first individual, (-) PHA): 7%
viability at 20000 µM ([3]; first individual, (-) PHA): 0%
viability at 3 µM ([3]; second individual, (+) PHA): 100%
viability at 9 µM ([3]; second individual, (+) PHA): 100%
viability at 27 µM ([3]; second individual, (+) PHA): 94%
viability at 81 µM ([3]; second individual, (+) PHA): 98%
viability at 244 µM ([3]; second individual, (+) PHA): 96%
viability at 733 µM ([3]; second individual, (+) PHA): 94%
viability at 2200 µM ([3]; second individual, (+) PHA): 93%
viability at 6700 µM ([3]; second individual, (+) PHA): 6%
viability at 20000 µM ([3]; second individual, (+) PHA): 0%
viability at 3 µM ([3]; second individual, (-) PHA): 100%
viability at 9 µM ([3]; second individual, (-) PHA): 100%
viability at 27 µM ([3]; second individual, (-) PHA): 100%
viability at 81 µM ([3]; second individual, (-) PHA): 100%
viability at 244 µM ([3]; second individual, (-) PHA): 98%
viability at 733 µM ([3]; second individual, (-) PHA): 95%
viability at 2200 µM ([3]; second individual, (-) PHA): 94%
viability at 6700 µM ([3]; second individual, (-) PHA): 4%
viability at 20000 µM ([3]; second individual, (-) PHA): 0%
viability ([4]; about 6.7 mM): little viability
Cells/ml ([4]; first individual, (+) PHA, 3 μM): 0.48 X 10^6 Cells/ml
Cells/ml ([4]; first individual, (+) PHA, 9 μM): 0.32 X 10^6 Cells/ml
Cells/ml ([4]; first individual, (+) PHA, 27 μM): 0.37 X 10^6 Cells/ml
Cells/ml ([4]; first individual, (+) PHA, 81 μM): 0.4 X 10^6 Cells/ml
Cells/ml ([4]; first individual, (+) PHA, 244 μM): 0.38 X 10^6 Cells/ml
Cells/ml ([4]; first individual, (+) PHA, 733 μM): 0.4 X 10^6 Cells/ml
Cells/ml ([4]; first individual, (+) PHA, 2.2 mM): 0.3 X 10^6 Cells/ml
Cells/ml ([4]; first individual, (+) PHA, 6.7 mM): 0.13 X 10^6 Cells/ml
Cells/ml ([4]; first individual, (-) PHA, 3 μM): 0.60 X 10^6 Cells/ml
Cells/ml ([4]; first individual, (-) PHA, 9 μM): 0.36 X 10^6 Cells/ml
Cells/ml ([4]; first individual, (-) PHA, 27 μM): 0.60 X 10^6 Cells/ml
Cells/ml ([4]; first individual, (-) PHA, 81 μM): 0.37 X 10^6 Cells/ml
Cells/ml ([4]; first individual, (-) PHA, 244 μM): 0.35 X 10^6 Cells/ml
Cells/ml ([4]; first individual, (-) PHA, 733 μM): 0.34 X 10^6 Cells/ml
Cells/ml ([4]; first individual, (-) PHA, 2.2 mM): 0.36 X 10^6 Cells/ml
Cells/ml ([4]; first individual, (-) PHA, 6.7 mM): 0.15 X 10^6 Cells/ml
Cells/ml ([4]; second individual, (+) PHA, 3 μM): 0.50 X 10^6 Cells/ml
Cells/ml ([4]; second individual, (+) PHA, 9 μM): 0.50 X 10^6 Cells/ml
Cells/ml ([4]; second individual, (+) PHA, 27 μM): 0.40 X 10^6 Cells/ml
Cells/ml ([4]; second individual, (+) PHA, 81 μM): 0.55 X 10^6 Cells/ml
Cells/ml ([4]; second individual, (+) PHA, 244 μM): 0.52 X 10^6 Cells/ml
Cells/ml ([4]; second individual, (+) PHA, 733 μM): 0.39 X 10^6 Cells/ml
Cells/ml ([4]; second individual, (+) PHA, 2.2 mM): 0.42 X 10^6 Cells/ml
Cells/ml ([4]; second individual, (+) PHA, 6.7 mM): 0.24 X 10^6 Cells/ml
Cells/ml ([4]; second individual, (-) PHA, 3 μM): 0.5 X 10^6 Cells/ml
Cells/ml ([4]; second individual, (-) PHA, 9 μM): 0.51 X 10^6 Cells/ml
Cells/ml ([4]; second individual, (-) PHA, 27 μM): 0.43 X 10^6 Cells/ml
Cells/ml ([4]; second individual, (-) PHA, 81 μM): 0.53 X 10^6 Cells/ml
Cells/ml ([4]; second individual, (-) PHA, 244 μM): 0.46 X 10^6 Cells/ml
Cells/ml ([4]; second individual, (-) PHA, 733 μM): 0.48 X 10^6 Cells/ml
Cells/ml ([4]; second individual, (-) PHA, 2.2 mM): 0.42 X 10^6 Cells/ml
Cells/ml ([4]; second individual, (-) PHA, 6.7 mM): 0.23 X 10^6 Cells/ml
